Values quoted from earlier work in patent publication US20200315976A1, “Encapsulation Methods and Compositions” (Prodo Laboratories, Inc., priority 2017, published 2020).

System: islets

## CCOC(=O)c1ccccc1-c1c2cc(Br)c(=O)c(Br)c-2oc2c(Br)c([O-])c(Br)cc12.[K+] [Ethyl eosin, ethyl eosin]
  effect on islets during conformal encapsulation: islet death
